Data taken from patent publication US20250276036A1, “COMPOSITION FOR THE INHIBITION OF NRF2 AND USES THEREOF IN CANCER THERAPY” (Sunshine Biopharma Inc., priority 2022, published 2025).

Tests used:
[1] = test system: OVCAR3 epithelial cells; assay: Cell viability (CellTiter-Glo) after mRNA transfection, OVCAR3; assay type: cell-based, human
Method: (§1) The synthetic mRNA produced in Example 1 is transfected in cancer cells using the Lipofectamine MessengerMAX™ Transfection Reagent.
(§2) OVCAR3 epithelial cells isolated from malignant ascites of a patient with progressive adenocarcinoma of the ovary, and SUIT2 human pancreatic cancer cell lines are transfected for […] with 0, 0.3, 1, 3 and 9 ng of KEAP1 mRNA, or with 0, 0.3, 1, 3 and 9 ng of a control Cypridina luciferase (cLUC)(SEQ ID NO: 10) mRNA, per 1000 cells. The cells viability was measured using the CellTiter-Glo® assay from Promega®. In-cell Western analysis is used to detect the presence of KEAP1.

[2] = test system: Human Mammary Epithelial Cells (HMEC); assay: Cell viability (CellTiter-Glo) after mRNA transfection, HMEC; assay type: cell-based; details: HMEC, 0, 3 and 9 ng mRNA per 1000 cells, 48 hours transfection
Method: as §1
(§3) Human Mammary Epithelial Cells (HMEC), which are non-cancer cells were compared to MCF7 cancer cells. The HMEC cells and MCF7 cancer cells were transfected for 48 hours with 0, 0.3, 1, 3 and 9 ng of KEAP1 mRNA, or a control cLUC mRNA, per 1000 cells and their respective survival were compared. The cells viability was measured using the CellTiter-Glo® assay from Promega®. […] Now referring to FIG. 4, cell viability of MCF7 cells was affected by KEAP1 mRNA, but the viability of the HMEC cells was unaffected by KEAP1 mRNA.

[3] = test system: MCF7/MDR human breast adenocarcinoma cell line; assay: Cell viability (CellTiter-Glo) after mRNA transfection, MCF7/MDR; assay type: cell-based; details: for % Cell survival: MCF7/MDR, 48 hours transfection (Example 3)
Method: (§4) The goal of these experiments is to evaluate the transfectability of various cell lines, as well as evaluate the role of KEAP1 as a tumor cells sensitizer, evaluate its role in decreasing the viability of tumor cells. The synthetic mRNA produced in Example 1, or the cLUC mRNA are transfected in cancer cells using the Lipofectamine MessengerMAX™ Transfection Reagent, ThermoFisher™, Cat No: LMRNA001. 0, 0.3, 1, 3 or 9 ng of either mRNA is used per 1000 cells.
(§5) MCF7 and MCF7/MDR human breast adenocarcinoma cell lines are transfected for 48 hours with 0, 0.3, 1, 3 and 9 ng of KEAP1 mRNA, or with 0, 0.3, 1, 3 and 9 ng of a control Cypridina luciferase (cLUC) (SEQ ID NO: 10) mRNA. The cells viability was measured using the CellTiter-Glo® assay from Promega®. KEAP1 mRNA specific effects on MCF7 and MCF7/MDR cells survival were observed when cells were transfected with 0, 0.3, 1, 3 and 9 ng of KEAP1 mRNA.
(§6) MCF7 and MCF7/MDR human breast adenocarcinoma cell lines are transfected for 48 hours with 0, 1 and 3 ng of KEAP1 mRNA, or with 0, 1 and 3 ng of a control Cypridina luciferase (cLUC) mRNA, per 1000 cells. The cells viability was measured using the CellTiter-Glo® assay from Promega®. In-cell Western analysis is used to detect the presence of KEAP1.

[4] = test system: MCF7 human breast adenocarcinoma cell line; assay: Cell viability (CellTiter-Glo) after mRNA transfection, MCF7; assay type: cell-based
Method: as §4, §5, §6, §3

[5] = test system: SUIT2 human pancreatic cancer cell line; assay: Cell viability (CellTiter-Glo) after mRNA transfection, SUIT2; assay type: cell-based; details: SUIT2, 0, 3 and 9 ng mRNA per 1000 cells
Method: as §1, §2

cLUC mRNA: control Cypridina luciferase (cLUC) (SEQ ID NO: 10) mRNA
% Cell survival ([1]; OVCAR3, 3 ng mRNA per 1000 cells): 90% | % Cell survival ([1]; OVCAR3, 9 ng mRNA per 1000 cells): 80% | % Cell survival [2]: Resistant | effect on cell survival / viability ([3]; MCF7/MDR, 0, 0.3, 1, 3 and 9 ng mRNA per 1000 cells, 48 hours (FIG. 2)): little effect on cell survival unless a large amount of 9 ng was transfected | % Cell survival ([3]; 1 ng mRNA per 1000 cells): 100% | % Cell survival ([3]; 3 ng mRNA per 1000 cells): 55% | effect on cell survival / viability ([4]; MCF7, 0, 0.3, 1, 3 and 9 ng mRNA per 1000 cells, 48 hours (FIG. 2)): little effect on cell survival unless a large amount of 9 ng was transfected | % Cell survival ([4]; MCF7, 1 ng mRNA per 1000 cells, 48 hours transfection (Example 3)): 100% | % Cell survival ([4]; MCF7, 3 ng mRNA per 1000 cells, 48 hours transfection (Example 3)): 55% | % Cell survival ([4]; MCF7, 3 ng mRNA per 1000 cells, 48 hours transfection (Example 4, Table 2)): 100% | % Cell survival ([4]; MCF7, 9 ng mRNA per 1000 cells, 48 hours transfection (Example 4, Table 2)): 55% | % Cell survival [5]: Resistant
